Laboratory results taken from patent US20260374766A1, “METHODS FOR TREATING CANCER” (Antares Therapeutics, Inc., priority 2022, published 2026).
Where two headings read alike, the source gives them in different places.

Legend:
[1] = target: T1, p53 Y220C mutant protein (amino acid residues 94-293) (Homo sapiens, UniProt P04637, Y220C); experiment: Surface Plasmon Resonance (SPR) assay, Kd_kinetic; assay type: binding; settings: read-out: SPR P53 Y220C KD kinetic
T1 construct: p53 Y220C mutant protein (amino acid residues 94-293)
Outline: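 Binding measured by SPR on a Biacore 8K in running buffer of 50 mM Tris pH 7.5, 100 mM NaCl, 1 mM DTT, 0.01% Brij35, 0.05% Tween-20, 1% DMSO.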

p53 Y220C = p53 Y220C (Homo sapiens, UniProt P04637, Y220C); experiment: Luciferase Reporter Assay (Luc), p53 response element, NClH1299 cells with inducible p53 Y220C; assay type: cell-based; settings: 6 hour; for AC50: read-out: Luc P53 Y220C AC50
Outline: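 Doxycycline (0.5 ug/mL, 24 h) induces the mutant before a 6-hour compound treatment. Reporter activity is then quantified by One-Glo luminescence.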

H1299 p53 R273H = experiment: Cell Proliferation Assay (CellTiter-Glo, CTG), H1299 p53 R273H (NClH1299-inducible p53 R273H); assay type: cell-based; settings: Homo sapiens, NCI-H1299, 120 h, 5 days
Outline: (§1)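 Cells seeded at 250-500 per well and exposed to compound for 5 days. Viability read by CellTiter-Glo luminescence after 10 min at room temperature; IC50 calculated. H1299 lines carry Tet-One inducible p53 mutant constructs introduced by lentiviral transduction.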

NUGC3 p53 Y220C = experiment: Cell Proliferation Assay (CellTiter-Glo, CTG), NUGC3 p53 Y220C; assay type: cell-based; settings: Homo sapiens, NUGC-3, 120 h, 5 days
Outline: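 NClH1299 lines stably transduced with Tet-inducible p53 Y220C or R273H, plus NUGC3, were treated with compound for 5 days at 250-500 cells/well. IC50 derived from CellTiter-Glo luminescent signal after 10 min room-temperature incubation.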

H1299 p53 Y220C = experiment: Cell Proliferation Assay (CellTiter-Glo, CTG), H1299 p53 Y220C (NClH1299-inducible p53 Y220C); assay type: cell-based; settings: Homo sapiens, NCI-H1299, 120 h, 5 days
Outline: as §1

[2] = AC50, NClH1299 cells with inducible p53 Y220C
[3] = Emax, NClH1299 cells with inducible p53 Y220C, 10 uM tool compound as positive control
[4] = NClH1299-inducible p53 R273H cells
[5] = NClH1299-inducible p53 Y220C cells
[6] = AC50, luciferase reporter, NClH1299 inducible p53 Y220C
[7] = Emax, luciferase reporter, NClH1299 inducible p53 Y220C
[8] = NClH1299-inducible p53 R273H cells, CellTiter-Glo
[9] = NClH1299-inducible p53 Y220C cells, CellTiter-Glo

T1 sequence (P04637 94-293, stated change not applied): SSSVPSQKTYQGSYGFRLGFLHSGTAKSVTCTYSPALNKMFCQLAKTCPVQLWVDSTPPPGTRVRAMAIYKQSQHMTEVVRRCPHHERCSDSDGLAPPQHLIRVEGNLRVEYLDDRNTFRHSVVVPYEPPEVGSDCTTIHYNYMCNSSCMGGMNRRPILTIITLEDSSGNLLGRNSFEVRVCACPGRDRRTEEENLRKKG

SMILES	Kd ([1]; SPR, p53 Y220C)	AC50 (p53 Y220C; [6])	Emax (p53 Y220C; [7])	IC50 (H1299 p53 R273H; [8])	IC50 (NUGC3 p53 Y220C; NUGC3 cells, CellTiter-Glo)	IC50 (H1299 p53 Y220C; [9])	also measured
CNC(=O)c1ccc(NCC#Cc2cc3c(N[C@@H]4CCN(C)C[C@@H]4F)cccn3c2SC(F)(F)F)c(F)c1 [Example 502, 3-fluoro-4-{[3-(8-{[(3S,4R)-3-fluoro-1-methylpiperidin-4-yl]amino}-3-[(trifluoromethyl)sulfanyl]indolizin-2-yl)prop-2-yn-1-yl]amino}-N-methylbenzamide]	< 10 nM						AC50 (p53 Y220C; [2]): < 750 nM; Emax (p53 Y220C; [3]): > 90%; IC50 (H1299 p53 R273H; [4]): ≥ 10000 nM; IC50 (NUGC3 p53 Y220C; NUGC3 cells): < 750 nM; IC50 (H1299 p53 Y220C; [5]): < 750 nM
CNC(=O)c1cnc(C(=O)NC)c(NCC#Cc2cc3c(N[C@@H]4CCN(C)C[C@@H]4F)cccn3c2SC(F)(F)F)c1 [Example 496]	< 10 nM						AC50 (p53 Y220C; [2]): < 750 nM; Emax (p53 Y220C; [3]): > 90%; IC50 (H1299 p53 R273H; [4]): 5000 to 8000 nM; IC50 (NUGC3 p53 Y220C; NUGC3 cells): < 750 nM; IC50 (H1299 p53 Y220C; [5]): < 750 nM
CN1CC[C@@H](Nc2cccn3c(SC(F)(F)F)c(C#CCNc4ccc(C(N)=O)cc4)nc23)[C@@H](F)C1 [Example 314]	< 10 nM	< 750 nM	> 90%	≥ 10000 nM	< 750 nM	< 750 nM	
COc1cc([S@+](C)[O-])ccc1NCC#Cc1cc2c(N[C@@H]3CCN(C)C[C@@H]3F)cccn2c1SC(F)(F)F [Example 411]	< 10 nM	< 750 nM	> 90%	≥ 10000 nM	< 750 nM	< 750 nM	
CN1CC[C@H](Nc2cccn3c(SC(F)(F)F)c(C#CCNc4ccc(P(C)(C)=O)c5scnc45)cc23)[C@H](F)C1 [Example 389, 7-(dimethylphosphoryl)-N-[3-(8-{[(3R,4S)-3-fluoro-1-methylpiperidin-4-yl]amino}-3-[(trifluoromethyl)sulfanyl]indolizin-2-yl)prop-2-yn-1-yl]-1,3-benzothiazol-4-amine; formic acid]		< 750 nM	> 90%	8000 to 10000 nM	< 750 nM	< 750 nM	Kd [1]: < 10 nM
CN1CC[C@@H](Nc2cccn3c(SC(F)(F)F)c(C#CCNc4ccc(C(=O)N[C@H]5C[C@H](O)C5)cc4)cc23)[C@@H](F)C1 [Example 426]	< 10 nM	< 750 nM	> 90%	8000 to 10000 nM	< 750 nM	< 750 nM	
CN1CC[C@@H](Nc2cccn3c(SC(F)(F)F)c(C#CCNc4ccc(C(=O)N5CC(C)(O)C5)cc4)cc23)[C@@H](F)C1 [Example 395]	< 10 nM	< 750 nM	> 90%	5000 to 8000 nM	< 750 nM	< 750 nM	
[2H]C([2H])([2H])Oc1ccc(C(=O)NC)cc1NCC#Cc1cc2c(N[C@@H]3CCN(C)C[C@@H]3F)nccn2c1SC(F)(F)F [Example 470, 3-((3-(1-(((3S,4R)-3-fluoro-1-methylpiperidin-4-yl)amino)-6-((trifluoromethyl)thio)pyrrolo[1,2-a]pyrazin-7-yl)prop-2-yn-1-yl)amino)-4-(methoxy-d3)—N-methylbenzamide]	< 10 nM						AC50 (p53 Y220C; [2]): < 750 nM; Emax (p53 Y220C; [3]): > 90%; IC50 (H1299 p53 R273H; [4]): ≥ 10000 nM; IC50 (NUGC3 p53 Y220C; NUGC3 cells): < 750 nM; IC50 (H1299 p53 Y220C; [5]): < 750 nM
CNC(=O)c1ccc(OC)c(NCC#Cc2cc3c(N[C@@H]4CCNC[C@@H]4F)nccn3c2SC(F)F)c1 [Example 326]	< 10 nM	< 750 nM	> 90%	≥ 10000 nM	< 750 nM	< 750 nM	
CNC(=O)c1ccc(NCC#Cc2cc3c(N[C@@H]4CCN(C)C[C@@H]4F)cccn3c2SC(F)(F)F)c(C#N)c1 [Example 432, 3-cyano-4-{[3-(8-{[(3S,4R)-3-fluoro-1-methylpiperidin-4-yl]amino}-3-[(trifluoromethyl)sulfanyl]indolizin-2-yl)prop-2-yn-1-yl]amino}-N-methylbenzamide]	< 10 nM	< 750 nM	> 90%	≥ 10000 nM	< 750 nM	< 750 nM	
CNC(=O)c1ccc(NCC#Cc2cn3c(N[C@@H]4CCNC[C@@H]4F)cccc3c2SC(F)(F)F)c(OC)c1 [Example 434]	< 10 nM	< 750 nM	80 to 90%	5000 to 8000 nM	< 750 nM	< 750 nM	
CNC(=O)c1cnc(OC)c(NCC#Cc2cc3c(N[C@@H]4CN(C)C[C@@H]4F)nccn3c2SC(F)F)c1 [Example 328]	< 10 nM	< 750 nM	> 90%	≥ 10000 nM	< 750 nM	< 750 nM	
CNC(=O)c1ccc(NCC#Cc2cc3c(N[C@@H]4CCNC[C@@H]4F)cccn3c2SC(F)(F)F)c(OC2COC2)c1 [Example 435]	< 10 nM	< 750 nM	> 90%	≥ 10000 nM	< 750 nM	< 750 nM	
COc1cc(P(C)(C)=O)ccc1NCC#Cc1cn2c(N[C@@H]3CCN(C)C[C@@H]3F)cccc2c1SC(F)(F)F [Example 378]	< 10 nM	< 750 nM	80 to 90%	≥ 10000 nM	< 750 nM	< 750 nM	
[2H]C([2H])([2H])Oc1cc(C(=O)NC)ccc1NCC#Cc1cc2c(N[C@@H]3CCN(C)C[C@@H]3F)cccn2c1SC(F)(F)F [Example 442, 4-((3-(8-(((3S,4R)-3-fluoro-1-methylpiperidin-4-yl)amino)-3-((trifluoromethyl)thio)indolizin-2-yl)prop-2-yn-1-yl)amino)-3-(methoxy-d3)-N-methylbenzamide]	< 10 nM	< 750 nM	80 to 90%	5000 to 8000 nM	< 750 nM	< 750 nM	
CN1CCO[C@@H](CNC(=O)c2ccc(NCC#Cc3cc4c(N[C@@H]5CCN(C)C[C@@H]5F)cccn4c3SC(F)(F)F)cc2)C1 [Example 380]	< 10 nM	< 750 nM	80 to 90%	5000 to 8000 nM	< 750 nM	< 750 nM	
CNC(=O)c1ccc(NCC#Cc2cc3c(N[C@@H]4CCN(C)C[C@@H]4F)nccn3c2SC(F)(F)F)c(C#N)c1 [Example 301]	< 10 nM	750 to 1500 nM	> 90%	≥ 10000 nM	750 to 1500 nM	750 to 1500 nM	
CNC(=O)c1ccc(OC)c(NCC#Cc2cc3c(N[C@@H]4CCN(C)C[C@@H]4F)nccn3c2SC(F)F)n1 [Example 333]	< 10 nM	< 750 nM	> 90%	≥ 10000 nM	< 750 nM	< 750 nM	
C[C@@H](O)CNC(=O)c1ccc(OC2COC2)c(NCC#Cc2cc3c(N[C@@H]4CCN(C)C[C@@H]4F)cccn3c2SC(F)(F)F)c1 [Example 486]	< 10 nM						AC50 (p53 Y220C; [2]): < 750 nM; Emax (p53 Y220C; [3]): > 90%; IC50 (H1299 p53 R273H; [4]): ≥ 10000 nM; IC50 (NUGC3 p53 Y220C; NUGC3 cells): < 750 nM; IC50 (H1299 p53 Y220C; [5]): < 750 nM
CNC(=O)c1ccc(OC)c(NCC#Cc2nc3c(N[C@@H]4CCN(C)C[C@@H]4F)cccn3c2SC(F)(F)F)c1F [Example 320]	10 to 100 nM	> 3000 nM	70 to 80%	≥ 10000 nM	> 3000 nM	> 3000 nM	
COc1ccc(C(=O)N[C@H]2C[C@@H](O)C2)cc1NCC#Cc1cc2c(N[C@@H]3CCN(C)C[C@@H]3F)cccn2c1SC(F)(F)F [Example 471]	< 10 nM						AC50 (p53 Y220C; [2]): < 750 nM; Emax (p53 Y220C; [3]): > 90%; IC50 (H1299 p53 R273H; [4]): ≥ 10000 nM; IC50 (NUGC3 p53 Y220C; NUGC3 cells): < 750 nM; IC50 (H1299 p53 Y220C; [5]): < 750 nM
CNC(=O)c1cnc(OC)c(NCC#Cc2nc3c(N[C@H]4C[C@@H]5CC[C@H]([C@H]4F)N5C)cccn3c2SC(F)(F)F)c1 [Example 266]	< 10 nM	< 750 nM	70 to 80%	≥ 10000 nM	< 750 nM	< 750 nM	
CNC(=O)c1cc(OC)c(NCC#Cc2nc3c(N[C@@H]4CCN(C)C[C@@H]4F)cccn3c2SC(F)(F)F)cn1 [Example 120]							Kd ([1]; SPR, kinetic KD, p53 Y220C): < 10 nM; Emax (p53 Y220C; luciferase reporter, NClH1299 inducible p53 Y220C, 10 uM tool compound as positive control): 80 to 90%; AC50 (p53 Y220C; luciferase reporter, NClH1299 inducible p53 Y220C): < 750 nM; IC50 (H1299 p53 R273H; CellTiter-Glo, H1299 p53 R273H): ≥ 10000 nM; IC50 (NUGC3 p53 Y220C; CellTiter-Glo, NUGC3 p53 Y220C): < 750 nM; IC50 (H1299 p53 Y220C; CellTiter-Glo, H1299 p53 Y220C): < 750 nM
